Experimental findings from ChEMBL document CHEMBL1150211, “Structure of Irniine, a Pyrrolidine Alkaloid from Arisarum vulgare” (J Nat Prod, 1992) are described below.

This data set in a line: Toxicity in brine shrimp. To be noted: artemia, in vivo. In kind it is organism-based.

In brackets after ≈: the same amount, converted by molar mass.

`CN1CCC[C@H]1CCCCCCCCCc1ccccc1`: the LC50 (in general, the concentration that kills 50% of the test population) was determined as 1 µg/mL (≈ 3.48 µM).
